Source: US20140378416A1, “SILYL-CONTAINING HETEROCYCLIC COMPOUNDS AND METHODS OF USE THEREOF FOR THE TREATMENT OF VIRAL DISEASES” (priority 2011, published 2014)

Experiments:
HCV replicon 1b = assay: Cell-based HCV replicon assay (TaqMan), genotype 1b replicon; conditions: Hepatitis C virus, 72 h, HCV 1b replicon cells, replicon RNA by TaqMan on day 3; EC90 = concentration for ΔCT=3.2 over baseline
Description: (§1) Measurement of inhibition by compounds of the present invention was performed using the HCV replicon system. Several different replicons encoding different HCV genotypes or mutations were used. In addition, potency measurements were made using different formats of the replicon assay, including different ways of measurements and different plating formats. See Jan M. Vrolijk et al., A replicons-based bioassay for the measurement of interferons in patients with chronic hepatitis C, 110 J. VIROLOGICAL METHODS 201 (2003); Steven S. Carroll et al., Inhibition of Hepatitis C Virus RNA Replication by 2′-Modified Nucleoside Analogs, 278(14) J. BIOLOGICAL CHEMISTRY 11979 (2003). However, the underlying principles are common to all of these determinations, and are outlined below.
(§2) Compounds of the present invention were assayed for cell-based anti-HCV activity using the following protocol. Replicon cells were seeded at 5000 cells/well in 96-well collagen I-coated Nunc plates in the presence of the test compound. Various concentrations of test compound, typically in 10 serial 2-fold dilutions, were added to the assay mixture, with the starting concentration ranging from 250 μM to 1 μM. The final concentration of DMSO was 0.5%, fetal bovine serum was 5%, in the assay media. Cells were harvested on day 3 by the addition of 1× cell lysis buffer (Ambion cat #8721). The replicon RNA level was measured using real time PCR (TaqMan® assay). The amplicon was located in 5B. The PCR primers were: 5B.2F, ATGGACAGGCGCCCTGA (SEQ. ID NO. 1); 5B.2R, […] (SEQ. ID NO. 2); the probe sequence was FAM-labeled CACGCCATGCGCTGCGG (SEQ. ID NO. 3). GAPDH RNA was used as endogenous control and was amplified in the same reaction as NS5B (multiplex PCR) using primers and VIC-labeled probe recommended by the manufacturer (PE Applied Biosystem). The real-time […] reactions were run on ABI PRISM 7900HT Sequence Detection System using the following program: 48° C. for 30 minutes, 95° C. for 10 minutes, 40 cycles of 95° C. for 15 sec, 60° C. for 1 minute. The ACT values (CT5B-CTGAPDH) were plotted against the concentration of test compound and fitted to the sigmoid dose-response model using XLfit4 (MDL). EC50 was defined as the concentration of inhibitor necessary to achieve ΔCT=1 over the projected baseline; EC90 the concentration necessary to achieve ΔCT=3.2 over the baseline. Alternatively, to quantitate the absolute amount of replicon RNA, a standard curve was established by including serially diluted T7 transcripts of replicon RNA in the Taqman assay. All TaqMan® reagents were from PE Applied Biosystems. Such an assay procedure was described in detail in e.g. Malcolm et al., Antimicrobial Agents and Chemotherapy 50: 1013-1020 (2006).
(§3) HCV replicon EC50 assay data for various replicons and mutants was calculated for selected compounds of the present invention using this method and is provided in the tables above herein.

HCV replicon 1a Y93H = assay: Cell-based HCV replicon assay (TaqMan), genotype 1a Y93H mutant replicon; conditions: Hepatitis C virus, 72 h, read-out: 1a Y93H EC90, HCV 1a Y93H mutant replicon cells, replicon RNA by TaqMan on day 3; EC90 = concentration for ΔCT=3.2 over baseline
Description: as §1, §2, §3

HCV replicon 2b = assay: Cell-based HCV replicon assay (TaqMan), genotype 2b replicon; conditions: Hepatitis C virus, 72 h, read-out: 2b EC90, HCV 2b replicon cells, replicon RNA by TaqMan on day 3; EC90 = concentration for ΔCT=3.2 over baseline
Description: as §1, §2, §3

HCV replicon 1a = assay: Cell-based HCV replicon assay (TaqMan), genotype 1a replicon; conditions: Hepatitis C virus, 72 h, HCV 1a replicon cells, replicon RNA by TaqMan on day 3; EC90 = concentration for ΔCT=3.2 over baseline
Description: as §1, §2, §3

SMILES	EC90 (HCV replicon 1b) [nM]	EC90 (HCV replicon 1a Y93H) [nM]	EC90 (HCV replicon 2b) [nM]	EC90 (HCV replicon 1a) [nM]
COC(=O)N[C@@H](CSC)C(=O)N1CCC[C@H]1c1ncc(-c2ccc(-c3ccc(-c4cnc([C@@H]5C[Si](C)(C)CN5C(=O)[C@H](CSC)NC(=O)OC)[nH]4)cc3)cc2)[nH]1 [Compound 32]	0.03	> 1000	144	–
COC(=O)N[C@H](C(=O)N1CCC[C@H]1c1ncc(-c2ccc(-c3ccc(-c4cnc([C@@H]5C[Si](C)(C)CN5C(=O)[C@@H](NC(=O)OC)C5CCOCC5)[nH]4)cc3)cc2)[nH]1)C1CCOCC1 [Compound 33]	0.09	43	7.6	–
COC(=O)N[C@H](C(=O)N1CCC[C@H]1c1ncc(-c2ccc(-c3ccc(-c4cnc([C@@H]5C[Si](C)(C)CN5C(=O)[C@@H](NC(=O)OC)C(C)(C)OC)[nH]4)cc3)cc2)[nH]1)C(C)(C)OC [Compound 35]	0.09	> 1000	> 1000	–
COC(=O)N[C@@H](CC(C)(C)C)C(=O)N1CCC[C@H]1c1ncc(-c2ccc(-c3ccc(-c4cnc([C@@H]5C[Si](C)(C)CN5C(=O)[C@H](CC(C)(C)C)NC(=O)OC)[nH]4)cc3)cc2)[nH]1 [Compound 36]	0.03	617	434	–
COC(=O)N[C@@H](CC1CC1)C(=O)N1CCC[C@H]1c1ncc(-c2ccc(-c3ccc(-c4cnc([C@@H]5C[Si](C)(C)CN5C(=O)[C@H](CC5CC5)NC(=O)OC)[nH]4)cc3)cc2)[nH]1 [Compound 37]	0.03	425	888	–
CC[C@@H](O)[C@H](NC(=O)OC)C(=O)N1CCC[C@H]1c1ncc(-c2ccc(-c3ccc(-c4cnc([C@@H]5C[Si](C)(C)CN5C(=O)[C@@H](NC(=O)OC)[C@H](O)CC)[nH]4)cc3)cc2)[nH]1 [Compound 38]	0.21	> 1000	> 1000	–
COC(=O)N[C@H](C(=O)N1CCC[C@H]1c1ncc(-c2ccc(-c3ccc(-c4cnc([C@@H]5C[Si](C)(C)CN5C(=O)[C@@H](NC(=O)OC)[C@H](O)C(C)C)[nH]4)cc3)cc2)[nH]1)[C@H](O)C(C)C [Compound 39]	0.03	> 1000	510	–
COC(=O)N[C@H](C(=O)N1C[Si](C)(C)C[C@H]1c1nc(Cl)c(-c2ccc(-c3ccc(-c4[nH]c([C@@H]5C[C@H]6C[C@H]6N5C(=O)[C@@H](NC(=O)OC)C5CCOCC5)nc4Cl)cc3)cc2)[nH]1)C1CCOCC1 [Compound 54]	–	2.5	0.48	0.023
COC(=O)N[C@H](C(=O)N1C[Si](C)(C)C[C@H]1c1ncc(-c2ccc(-c3ccc(-c4[nH]c([C@@H]5CCCN5C(=O)[C@@H](NC(=O)OC)C(C)C)nc4C4CC4)cc3)cc2)[nH]1)C(C)C [Compound 63]	–	882	451	0.69
COC(=O)N[C@H](C(=O)N1C[Si](C)(C)C[C@H]1c1ncc(-c2ccc(-c3ccc(-c4[nH]c([C@@H]5CCCN5C(=O)[C@@H](NC(=O)OC)C(C)C)nc4Cl)cc3)cc2)[nH]1)C(C)C [Compound 64]	–	344	99	0.17
COC(=O)N[C@H](C(=O)N1C[Si](C)(C)C[C@H]1c1ncc(-c2ccc(-c3ccc(-c4[nH]c([C@@H]5CCCN5C(=O)[C@@H](NC(=O)OC)C5CCOCC5)nc4C4CC4)cc3)cc2)[nH]1)C1CCOCC1 [Compound 66]	–	88	1.6	0.07
C[Si]1(C)C[C@@H](c2ncc(-c3ccc(-c4ccc(-c5[nH]c([C@@H]6CCCN6C(=O)[C@H]6CCCO6)nc5Cl)cc4)cc3)[nH]2)N(C(=O)[C@H]2CCCO2)C1 [Compound 67]	–	510	> 1000	211
